Experimental data as given in patent US11014890B2, “Forms of (R)-N-(4-chlorophenyl)-2-(cis-4-(6-fluoroquinolin-4-yl)cyclohexyl)propanamide” (SHENZHEN RENTAI PHARMATECH LTD, priority 2018, dated 2021).

Tests used:
Assay type in all cases: physicochemical
[1] = high-temperature stability test (XRPD comparison); settings: 60° C., 5 d and 10 d; XRPD FIGS. 13, 14 and 28
Method: (§1) X-Ray Powder Diffractometer (XRPD)
(§2) Model: Bruker, Germany, BRUKER D8 DISCOVER
(§3) Method: Cu target Ka, voltage 40 KV, current 40 mA, test angle 3-45°, step size 0.02, exposure time 0.2 S, light pipe slit width 1 mm, detector slit width 2.7 mm.
Electrothermal Constant-Temperature Dry Box
(§4) Model: DHG-9011A (Shanghai Jinghong Experimental Equipment Co., Ltd.) Programmable drug stability constant temperature and humidity tester
(§5) The products prepared in Embodiment 1 and Embodiment 6, and the amorphous active pharmaceutical ingredient were respectively subjected to experimental tests for light stability, high-temperature stability, accelerated stability, high-humidity stability, and water adsorption.
(2) The test products were respectively placed under 60° C. and tested for 5 d and 10 d stability, and the results are shown in FIGS. 13, 14 and 28.

[2] = accelerated stability test (XRPD comparison); settings: 40° C. and humidity of 75% RH; XRPD FIGS. 15, 16 and 29
Method: as §1, §2, §3, §4
Model: CMA-100C (Shanghai Puhan Precision Equipment Co., Ltd.)
as §5

[3] = light stability test (XRPD comparison); settings: 25° C. and 4500 lux of light, 5 d and 10 d; XRPD FIGS. 11, 12 and 27
Method: as §1, §2, §3
Model: Shanghai Yiheng Scientific Instrument Co., Ltd., MGC-100
as §5
(1) The test products were respectively placed under 25° C. and 4500 lux of light and tested for 5 d and 10 d stability, and the results are shown in FIGS. 11, 12 and 27.

[4] = water adsorption test (DVS); settings: 25° C., humidity 0-90, 10% per step, weight change less than 0.002% in each step of 10 minutes; FIGS. 17, 18 and 30
Method: DVS Model: SMS, U.K, DVS intrinsic Method: 25° C., 10% humidity per step, the judgment standard is less than 0.002% for 10 min The products prepared in Embodiment 1 and Embodiment 6, and the amorphous active pharmaceutical ingredient were respectively subjected to experimental tests for light stability, high-temperature stability, accelerated stability, high-humidity stability, and water adsorption. (5) The test products were respectively subjected to the water adsorption test, the experimental conditions were as follows: 25° C., humidity 0-90, 10% per step, and the weight change was less than 0.002% in each step of 10 minutes.

[5] = high-humidity stability test (XRPD comparison); settings: 25° C. and humidity of 92.5% RH; XRPD FIGS. 32, 33 and 34
Method: as §1, §2, §3, §5

high-temperature stability [1]	accelerated stability [2]	light stability [3]	water adsorption (hygroscopic curve, DVS) [4]	high-humidity stability [5]	SMILES
good stability	good stability	good stability	do not adsorb water	good stability	C[C@@H](C(=O)Nc1ccc(Cl)cc1)[C@H]1CC[C@@H](c2ccnc3ccc(F)cc32)CC1 [Form B, (R)—N-(4-chlorophenyl)-2-(cis-4-(6-fluoroquinolin-4-yl)cyclohexyl)propanamide]
good stability	good stability	good stability	do not adsorb water	good stability	C[C@@H](C(=O)Nc1ccc(Cl)cc1)[C@H]1CC[C@@H](c2ccnc3ccc(F)cc32)CC1 [Form C, (R)—N-(4-chlorophenyl)-2-(cis-4-(6-fluoroquinolin-4-yl)cyclohexyl)propanamide]
good stability	good stability	good stability	large hygroscopicity	good stability	C[C@@H](C(=O)Nc1ccc(Cl)cc1)[C@H]1CC[C@@H](c2ccnc3ccc(F)cc32)CC1 [amorphous active pharmaceutical ingredient] [(R)—N-(4-chlorophenyl)-2-(cis-4-(6-fluoroquinolin-4-yl)cyclohexyl)propanamide, reference compound]
